Where “and” joins values, the source holds several entries; their conditions need not be identical. Identical values can stand only once.
Tested on: lipase
Assay: Lipase/lipolysis assay (EnzChek Lipase Substrate, quenched BODIPY-fatty acid conjugate) on stored human milk; also: test concentration or dose not given here

| Molecule | Lipase (RFU) |
| --- | --- |
| CCCCC/C=C\C/C=C\CCCCCCCC(=O)O[C@H](COC(=O)CCCCCCCCCCCCCCCCC)COP(=O)([O-])OCC[N+](C)(C)C | 1049.632 RFU |
| O=C(O)CC(O)(C(=O)O)C(O)C(=O)O (centres unmarked) | 1053.487 RFU |
| C[S+](CC[C@H](N)C(=O)[O-])C[C@H]1O[C@@H](n2cnc3c(N)ncnc32)[C@H](O)[C@@H]1O.Cc1ccc(S(=O)(=O)O)cc1.O=S(=O)(O)O.O=S(=O)(O)O (some centres unmarked) | 726.0141 RFU |
| CCCCCCCCCCCCCC(=O)OC[C@H](COP(=O)(O)OCCN)OC(=O)CCCCCCCCCCCCC | 805.4396 RFU |
| 1,4-Dicaffeoylquinic acid | 794.8464 RFU |
| Nc1nc(=O)c2c([nH]1)NCC(CNc1ccc(C(=O)N[C@@H](CCC(=O)O)C(=O)O)cc1)N2C=O (mixture of isomers) [Folinic acid] | 949.4803 RFU |
| O=C1O[C@H]2[C@@H]3OC(=O)c4cc(O)c(O)c(O)c4-c4c(O)c(O)c5oc(=O)c6c(c(O)c(O)c7oc(=O)c4c5c76)-c4c(cc(O)c(O)c4O)C(=O)OC[C@H]3OC(O)[C@@H]2OC(=O)c2cc(O)c(O)c(O)c2-c2c1cc(O)c(O)c2O (mixture of isomers) [Punicalagin] | 646.9241 RFU |
| c1cncc([C@@H]2CCCCN2)c1 (racemic) [(±) Anabasine] | 1022.058 RFU |
| C[N+](C)(C)CC(O)CC(=O)[O-] (racemic) [D,L-Carnitine] | 1067.602 RFU and 1032.196 RFU |
| CCSCCC(N)C(=O)O (racemic) [D,L-Ethionine] | 921.5463 RFU |
| NC(=O)CCCCC1CCSS1 (racemic) [D,L-Lipoamide] | 1094.48 RFU |
| O=C(O)CC(O)C(=O)O (racemic) [D,L-Malic Acid] | 781.9881 RFU |
| NC(Cc1ccc(O)c(O)c1)C(=O)O (racemic) [DL-Dopa] | 819.29 RFU |
| CC1CCC(C(C)C)C(O)C1 (racemic) [DL-Menthol] | 1275.242 RFU |
| NC(COP(=O)(O)O)C(=O)O (racemic) [DL-O-Phosphoserine] | 728.85 RFU |
| NC(Cc1ccccc1O)C(=O)O (racemic) [DL-O-Tyrosine] | 919.2122 RFU |
| O=C(O)C(O)C(O)C(=O)O (racemic) [DL-Tartaric acid] | 1079.017 RFU |
| NC(Cc1c[nH]c2ccccc12)C(=O)O (racemic) [DL-Tryptophan] | 935.3545 RFU |
| CC(=O)Oc1c(C)c(C)c2c(c1C)CCC(C)(CCCC(C)CCCC(C)CCCC(C)C)O2 (racemic) [DL-α-Tocopherol acetate] | 697.673 RFU |
| Cc1cc(O)c(C)c2c1O[C@](C)(CCC[C@H](C)CCC[C@H](C)CCCC(C)C)CC2 (relative stereo) [(rel)-β-Tocopherol] | 1146.301 RFU |
| CC1(C)CCCC2(C)OC(=O)C=C12 (single isomer, unassigned; (+)) [(+)-Dihydroactinidiolide] | 951.3124 RFU |
| COC1=CC(=O)OC(/C=C/c2ccccc2)C1 (single isomer, unassigned; (+)) [(+)-Kavain] | 895.974 RFU |
| COc1cc([C@H]2OC[C@@H]3C(c4cc(OC)c(O)c(OC)c4)OC[C@H]23)ccc1O (single isomer, unassigned; (+)) [(+)-Medioresinol] | 1166.732 RFU |
| COc1cc(C=CC(=O)O)cc(OC)c1O (stereo in doubt) [Sinapinic acid] | 1040.338 RFU |

| Molecule | Lipase (RFU) |
| --- | --- |
| COc1ccccc1OC [1,2-Dimethoxybenzene] | 1094.378 RFU and 752.9866 RFU |
| CC(O)CO (centres unmarked) [1,2-Propanediol] | 1150.168 RFU |
| C1CSCSC1 [1,3-Dithiane] | 1179.502 RFU |
| CC(C)C12CCC(C)(CC1)O2 [1,4-Cineole] | 770.6625 RFU and 1018.049 RFU |
| Cl.Cl.NCCCCN [1,4-Diaminobutane (dihydrochloride)] | 865.534 RFU |
| CC(=O)C(=O)c1ccccc1 [1-Phenylpropane-1,2-dione] | 1078.742 RFU |
| COC1=CC(=O)C=C(OC)C1=O [2,6-Dimethoxy-1,4-benzoquinone] | 934.6959 RFU |
| O=C1c2ccccc2C(=O)c2cc(CO)ccc21 [2-(Hydroxymethyl)anthraquinone] | 723.6408 RFU |
| NC(=O)NCCCC(N)C(=O)O (centres unmarked) [2-Amino-5-ureidopentanoic acid] | 983.9261 RFU |
| NCCO [2-Aminoethanol] | 533.8 RFU |
| NCCP(=O)(O)O [2-Aminoethyl Phosphonic Acid] | 863.4665 RFU |
| COc1ccccc1C(=O)O [2-Methoxybenzoic acid] | 739.8823 RFU and 1090.701 RFU |
| CC(=O)c1ccccc1N [2′-Aminoacetophenone] | 970.2571 RFU |
| Nc1ncnc2c1ncn2[C@H]1C[C@H](O)[C@@H](CO)O1.O [2′-Deoxyadenosine monohydrate] | 945.7798 RFU |
| Nc1nc2c(ncn2[C@H]2C[C@H](O)[C@@H](CO)O2)c(=O)[nH]1.O [2′-Deoxyguanosine monohydrate] | 782.4513 RFU |
| COc1cc(C(=O)O)cc(OC)c1OC [3,4,5-Trimethoxybenzoic acid] | 1121.402 RFU |
| COc1cc(C=CC(=O)O)cc(OC)c1OC [3,4,5-Trimethoxycinnamic acid] | 1076.789 RFU |
| O=C(/C=C/c1ccc(O)c(O)c1)O[C@H]1[C@H](O)C[C@](O)(C(=O)O)C[C@H]1OC(=O)/C=C/c1ccc(O)c(O)c1 [3,4-Dicaffeoylquinic acid] | 721.4239 RFU |
| CC(=O)O[C@@H]1CC[C@@]2(C)[C@@H](CC[C@]3(C)[C@@H]2CC=C2[C@@H]4[C@@H](C)[C@H](C)CC[C@]4(C)CC[C@]23C)[C@@]1(C)C(=O)O [3-Acetyl-beta-boswellic acid] | 752.9436 RFU |
| CCCC=C1OC(=O)c2ccccc21 [3-Butylidenephthalide] | 952.6722 RFU |
| CC1(C)CC[C@]2(C(=O)O)CC[C@]3(C)C(=CC[C@@H]4[C@@]5(C)CC[C@@H](O)C(C)(C)[C@@H]5CC[C@]43C)[C@@H]2C1 [3-Epioleanolic acid] | 1064.911 RFU |
| C[C@H]1[C@H](C)CC[C@]2(C(=O)O)CC[C@]3(C)C(=CC[C@@H]4[C@@]5(C)CC[C@H](O)C(C)(C)[C@@H]5CC[C@]43C)[C@H]12 [3-Epiursolic Acid] | 968.3096 RFU |
| COc1cc(CCN)ccc1O.Cl [3-Methoxytyramine (hydrochloride)] | 963.841 RFU |
| COc1ccc(-c2cc(=O)c3c(OC)c(OC)c(OC)c(OC)c3o2)cc1O [3′-Demethylnobiletin] | 794.5882 RFU |

| Molecule | Lipase (RFU) |
| --- | --- |
| O=C(C=Cc1ccc(O)c(O)c1)OC1CC(O)(C(=O)O)CC(O)C1OC(=O)C=Cc1ccc(O)c(O)c1 (centres unmarked) [4,5-Dicaffeoylquinic acid] | 1065.884 RFU |
| CC(=O)c1ccc(O)cc1 [4-Hydroxyacetophenone] | 724.0191 RFU |
| N#CCc1ccc(O)cc1 [4-Hydroxybenzyl cyanide] | 1050.204 RFU |
| COc1cc(OC)c2c(=O)cc(-c3ccc(OC)c(OC)c3)oc2c1 [5,7,3′,4′-Tetramethoxyflavone] | 1023.427 RFU |
| Cl.NCC(=O)CCC(=O)O [5-Aminolevulinic acid (hydrochloride)] | 643.3591 RFU |
| COc1ccc(-c2cc(=O)c3c(O)c(OC)c(OC)cc3o2)cc1OC [5-Desmethylsinensetin] | 571020.7 RFU |
| OCCc1c[nH]c2ccc(O)cc12 [5-Hydroxytryptophol] | 681.6533 RFU |
| O=C(CO)[C@@H](O)[C@H](O)[C@@H](O)C(=O)O [5-Keto-D-Gluconic Acid] | 922.1469 RFU |
| COc1ccc2[nH]cc(CCO)c2c1 [5-Methoxytryptophol] | 1031.531 RFU |
| O=C(C=Cc1ccc(O)c(O)c1)OC1CC(C(=O)O)=CC(O)C1O (centres unmarked) [5-O-Caffeoylshikimic acid] | 1072.132 RFU |
| CC(=O)[C@H]1CC[C@H]2[C@@H]3CC[C@H]4CC(=O)CC[C@]4(C)[C@H]3CC[C@]12C [5a-Pregnane-3,20-dione] | 1117.705 RFU |
| Nc1nc2c(ncn2[C@@H]2O[C@H](COP(=O)([O-])[O-])[C@@H](O)[C@H]2O)c(=O)[nH]1.[Na+].[Na+] [5′-Guanylic acid (disodium salt)] | 910.9839 RFU |
| COc1ccc(-c2cc(=O)c3c(OC)cc(OC)c(OC)c3o2)cc1 [6-Demethoxytangeretin] | 818.2248 RFU |
| O=c1cc(-c2ccc(O)c(O)c2)oc2cc(O[C@@H]3O[C@H](CO)[C@@H](O)[C@H](O)[C@H]3O)c(O)c(O)c12 [6-Hydroxyluteolin 7-glucoside] | 1135.118 RFU |
| O=C(O)c1ccc(O)nc1 [6-Hydroxynicotinic acid] | 655.7069 RFU |
| C[C@H](O)[C@H](O)C1=Nc2c(nc(N)[nH]c2=O)NC1 [7,8-Dihydro-L-biopterin] | 1090.909 RFU |
| C[C@H](CCC(=O)O)[C@H]1CC[C@H]2[C@@H]3C(=O)C[C@@H]4C[C@H](O)CC[C@]4(C)[C@H]3CC[C@]12C [7-Ketolithocholic acid] | 991.8245 RFU |
| C[C@H](CCC(=O)O)[C@H]1CC[C@H]2[C@@H]3C(=O)C[C@@H]4C[C@H](O)CC[C@]4(C)[C@H]3C[C@H](O)[C@]12C [7-keto-Deoxycholic acid] | 890.8412 RFU |
| CC(C)CCC[C@@H](C)[C@H]1CC[C@H]2C3=C(CC[C@]12C)[C@@]1(C)CC[C@H](O)CC1=CC3 [8-Dehydrocholesterol] | 707.3733 RFU |
| C[C@]12CCC(=O)C=C1CC[C@@H]1[C@@H]2[C@@H](O)C[C@]2(C)C(=O)CC[C@@H]12 [11-Beta-hydroxyandrostenedione] | 1190.299 RFU |
| O=C(O)CCCCCCCCCCCO [12-Hydroxydodecanoic acid] | 778.3097 RFU |
| C[C@H](CCC(=O)O)[C@H]1CC[C@H]2[C@@H]3CC[C@@H]4CC(O)CC[C@]4(C)[C@H]3CC(=O)[C@]12C (some centres unmarked) [12-Ketodeoxycholic acid] | 778.2255 RFU |
| CC(=O)[C@@]1(O)CC[C@H]2[C@@H]3CCC4=CC(=O)CC[C@]4(C)[C@H]3CC[C@@]21C [17α-Hydroxyprogesterone] | 867.6703 RFU |
